Reference: patent US12291518B2, “Thyroid hormone receptor agonists and use thereof” (Eccogene Inc., priority 2020, dated 2025)

Columns and labels:
[1] = molecular target: T1, THR alpha-LBD (Homo sapiens, UniProt P10827); assay: THR-α Coactivator Peptide Recruitment Assay (LanthaScreen TR-FRET); format: biochemical; settings: TR-FRET coactivator recruitment, THR alpha-LBD 0.25 nM; for EC50: read-out: THRα EC50
T1 construct: except that THR alpha-LBD of a final concentration 0.25 nM was used; purchased Invitrogen PV4687
Procedure, shortened: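 TR-FRET coactivator recruitment with THR alpha-LBD at 0.25 nM final, Fluorescein-SRC2-2 peptide 0.1 nM and Tb-labeled anti-GST antibody 2 nM; 2 h incubation at room temperature. 520/495 nm emission ratio fitted to a four-parameter sigmoidal curve to give EC50.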

[2] = molecular target: T2, THR beta-LBD (Homo sapiens, UniProt P10828); assay: THR-β Coactivator Peptide Recruitment Assay (LanthaScreen TR-FRET); format: biochemical; settings: TR-FRET coactivator recruitment, THR beta-LBD 0.5 nM; for EC50: read-out: THRβ EC50
T2 construct: THR beta-LBD (the final concentration is 0.5 nM) was added to the 384-well assay plate; purchased Invitrogen PV4686
T2 sequence (P10828 217-461 limits assumed): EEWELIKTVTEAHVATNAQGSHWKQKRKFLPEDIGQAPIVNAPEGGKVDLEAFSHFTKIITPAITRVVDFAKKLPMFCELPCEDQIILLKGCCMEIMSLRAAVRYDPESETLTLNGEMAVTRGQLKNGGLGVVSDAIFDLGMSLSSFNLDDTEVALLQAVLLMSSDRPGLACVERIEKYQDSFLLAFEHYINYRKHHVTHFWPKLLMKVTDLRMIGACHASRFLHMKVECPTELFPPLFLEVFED
Procedure, shortened: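 Agonist-driven coactivator recruitment read as a 520/495 nm TR-FRET emission ratio after 2 h at room temperature. Final concentrations: THR beta-LBD 0.5 nM, fluorescein-SRC2-2 peptide 0.1 nM, terbium anti-GST antibody 2 nM. EC50 from four-parameter dose-response fitting.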

T1 sequence (P10827 163-410 isoform P10827-2 limits assumed, other chains not shown): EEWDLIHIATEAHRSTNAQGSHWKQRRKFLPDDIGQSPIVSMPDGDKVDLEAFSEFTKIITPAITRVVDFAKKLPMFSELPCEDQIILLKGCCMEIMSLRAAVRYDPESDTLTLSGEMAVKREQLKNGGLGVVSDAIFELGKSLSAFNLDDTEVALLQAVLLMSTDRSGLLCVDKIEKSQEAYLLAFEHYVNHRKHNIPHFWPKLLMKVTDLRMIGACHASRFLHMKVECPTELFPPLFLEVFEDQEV

Row | SMILES | THRα Emax [1] | EC50 [1] [nM] | THRβ Emax [2] | EC50 [2] [nM]
1 | O=C(NC1CCC1)c1cc(Oc2c(Cl)cc(-n3nc(C(F)F)c(=O)[nH]c3=O)cc2Cl)ncc1O [Compound 145, N-cyclobutyl-2-[2,6-dichloro-4-[6-(difluoromethyl)-3,5-dioxo-1,2,4-triazin-2-yl]phenoxy]-5-hydroxy-pyridine-4-carboxamide] | B (40~85) | 2 to 200 | B (75~90) | 2 to 20
2 | CS(=O)(=O)c1cc(Oc2c(Cl)cc(-n3nc(C#N)c(=O)[nH]c3=O)cc2Cl)ncc1O [Compound 147, 2-[3,5-dichloro-4-[(5-hydroxy-4-methylsulfonyl-2-pyridyl)oxy]phenyl]-3,5-dioxo-1,2,4-triazine-6-carbonitrile] | B (40~85) | 200 to 1000 | A (90~110) | 20 to 100
3 | N#Cc1cc(O)c(S(=O)(=O)N[C@H]2C[C@H](O)C2)cc1Oc1c(Cl)cc(-n2nc(C(F)F)c(=O)[nH]c2=O)cc1Cl [Compound 149, 4-cyano-5-[2,6-dichloro-4-[6-(difluoromethyl)-3,5-dioxo-1,2,4-triazin-2-yl]phenoxy]-2-hydroxy-N-(3-hydroxycyclobutyl)benzenesulfonamide] | C (<40) | > 1000 | C (<75) | > 100
4 | N#Cc1nn(-c2cc(Cl)c(Oc3cc(S(=O)(=O)NC4CCC4)c(O)cn3)c(Cl)c2)c(=O)[nH]c1=O [Compound 150] | A (85~110) | 2 to 200 | A (90~110) | 2 to 20
5 | CCS(=O)(=O)c1cc(Oc2c(Cl)cc(-n3nc(C(F)F)c(=O)[nH]c3=O)cc2Cl)ncc1O [Compound 151, 2-[3,5-dichloro-4-[(4-ethylsulfonyl-5-hydroxy-2-pyridyl)oxy]phenyl]-6-(difluoromethyl)-1,2,4-triazine-3,5-dione] | A (85~110) | 2 to 200 | A (90~110) | < 2
6 | O=c1[nH]c(=O)n(-c2cc(Cl)c(Cc3ccc(O)c(S(=O)(=O)NC4CS(=O)(=O)C4)c3)c(Cl)c2)nc1C(F)F [Compound 152, 5-[[2,6-dichloro-4-[6-(difluoromethyl)-3,5-dioxo-1,2,4-triazin-2-yl]phenyl]methyl]-N-(1,1-dioxothietan-3-yl)-2-hydroxy-benzenesulfonamide] | A (85~110) | < 2 | A (90~110) | < 2
7 | CS(=O)(=O)Cc1cc(Oc2c(Cl)cc(-n3nc(C(F)F)c(=O)[nH]c3=O)cc2Cl)ncc1O [Compound 154, 2-[3,5-dichloro-4-[[5-hydroxy-4-(methylsulfonylmethyl)-2-pyridyl]oxy]phenyl]-6-(difluoromethyl)-1,2,4-triazine-3,5-dione] | B (40~85) | 200 to 1000 | B (75~90) | 2 to 20
8 | O=c1[nH]c(=O)n(-c2cc(Cl)c(Cc3cc(S(=O)(=O)N[C@H]4C[C@H](O)C4)c(O)cn3)c(Cl)c2)nc1C(F)F [Compound 156, 2-(2,6-dichloro-4-(6-(difluoromethyl)-3,5-dioxo-4,5-dihydro-1,2,4-triazin-2 (3H)-yl)benzyl)-5-hydroxy-N-((1r,3r)-3-hydroxycyclobutyl)pyridine-4-sulfonamide] | B (40~85) | > 1000 | A (90~110) | 2 to 20

Next, values leading:

Row | THRα Emax [1] | EC50 [1] [nM] | THRβ Emax [2] | EC50 [2] [nM] | SMILES
9 | C (<40) | > 1000 | C (<75) | > 100 | C[C@]1(O)C[C@@H](NS(=O)(=O)c2cc(Oc3c(Cl)cc(-n4nc(C(F)F)c(=O)[nH]c4=O)cc3Cl)ncc2O)C1 [Compound 138, 2-(2,6-dichloro-4-(6-(difluoromethyl)-3,5-dioxo-4,5-dihydro-1,2,4-triazin-2(3H)-yl)phenoxy)-5-hydroxy-N-((1s,3s)-3-hydroxy-3-methylcyclobutyl)pyridine-4-sulfonamide]
10 | B (40~85) | 200 to 1000 | B (75~90) | 2 to 20 | CO[C@H]1C[C@H](NS(=O)(=O)c2cc(Oc3c(Cl)cc(-n4nc(C(F)F)c(=O)[nH]c4=O)cc3Cl)ncc2O)C1 [Compound 139, 2-(2,6-dichloro-4-(6-(difluoromethyl)-3,5-dioxo-4,5-dihydro-1,2,4-triazin-2(3H)-yl)phenoxy)-5-hydroxy-N-((1r,3r)-3-methoxycyclobutyl)pyridine-4-sulfonamide]
11 | B (40~85) | 200 to 1000 | B (75~90) | 20 to 100 | CO[C@H]1C[C@@H](NS(=O)(=O)c2cc(Oc3c(Cl)cc(-n4nc(C(F)F)c(=O)[nH]c4=O)cc3Cl)ncc2O)C1 [Compound 140, 2-(2,6-dichloro-4-(6-(difluoromethyl)-3,5-dioxo-4,5-dihydro-1,2,4-triazin-2(3H)-yl)phenoxy)-5-hydroxy-N-((1s,3s)-3-methoxycyclobutyl)pyridine-4-sulfonamide]
12 | B (40~85) | 2 to 200 | B (75~90) | 2 to 20 | O=c1[nH]c(=O)n(-c2cc(Cl)c(Oc3cc(S(=O)(=O)N4CC[C@@H](O)C4)c(O)cn3)c(Cl)c2)nc1C(F)F [Compound 141, (R)-2-(3,5-dichloro-4-((5-hydroxy-4-((3-hydroxypyrrolidin-1-yl)sulfonyl)pyridin-2-yl)oxy)phenyl)-6-(difluoromethyl)-1,2,4-triazine-3,5(2H,4H)-dione]
13 | B (40~85) | 200 to 1000 | B (75~90) | 20 to 100 | O=c1[nH]c(=O)n(-c2cc(Cl)c(Oc3cc(S(=O)(=O)NC45CC(O)(C4)C5)c(O)cn3)c(Cl)c2)nc1C(F)F [Compound 142, 2-(2,6-dichloro-4-(6-(difluoromethyl)-3,5-dioxo-4,5-dihydro-1,2,4-triazin-2(3H)-yl)phenoxy)-5-hydroxy-N-(3-hydroxybicyclo[1.1.1]pentan-1-yl)pyridine-4-sulfonamide]
14 | B (40~85) | 200 to 1000 | B (75~90) | 2 to 20 | O=c1[nH]c(=O)n(-c2cc(Cl)c(Oc3cc(S(=O)(=O)N[C@H]4CC[C@H](O)CC4)c(O)cn3)c(Cl)c2)nc1C(F)F [Compound 143, 2-(2,6-dichloro-4-(6-(difluoromethyl)-3,5-dioxo-4,5-dihydro-1,2,4-triazin-2(3H)-yl)phenoxy)-5-hydroxy-N-((1r,4r)-4-hydroxycyclohexyl)pyridine-4-sulfonamide]
15 | C (<40) | > 1000 | C (<75) | 20 to 100 | O=c1[nH]c(=O)n(-c2cc(Cl)c(Oc3cc(S(=O)(=O)N[C@H]4CC[C@@H](O)CC4)c(O)cn3)c(Cl)c2)nc1C(F)F [Compound 144, 2-(2,6-dichloro-4-(6-(difluoromethyl)-3,5-dioxo-4,5-dihydro-1,2,4-triazin-2(3H)-yl)phenoxy)-5-hydroxy-N-((1s,4s)-4-hydroxycyclohexyl)pyridine-4-sulfonamide]
16 | A (85~110) | 2 to 200 | A (90~110) | 2 to 20 | CS(=O)(=O)c1cc(Oc2c(Cl)cc(-n3nc(C(F)F)c(=O)[nH]c3=O)cc2Cl)ncc1O [Compound 146, 2-[3,5-dichloro-4-[(5-hydroxy-4-methylsulfonyl-2-pyridyl)oxy]phenyl]-6-(difluoromethyl)-1,2,4-triazine-3,5-dione]
17 | A (85~110) | 2 to 200 | B (75~90) | 2 to 20 | O=c1[nH]c(=O)n(-c2cc(Cl)c(Oc3cc(S(=O)(=O)NC4CS(=O)(=O)C4)c(O)cn3)c(Cl)c2)nc1C(F)F [Compound 148, 2-[2,6-dichloro-4-[6-(difluoromethyl)-3,5-dioxo-1,2,4-triazin-2-yl]-phenoxy]-N-(1,1-dioxothietan-3-yl)-5-hydroxy-pyridine-4-sulfonamide]
18 | A (85~110) | 2 to 200 | A (90~110) | < 2 | O=c1[nH]c(=O)n(-c2cc(Cl)c(Oc3cc(S(=O)(=O)C4CCC4)c(O)cn3)c(Cl)c2)nc1C(F)F [Compound 153, 2-[3,5-dichloro-4-[(4-cyclobutylsulfonyl-5-hydroxy-2-pyridyl)-oxy]phenyl]-6-(difluoromethyl)-1,2,4-triazine-3,5-dione]
19 | A (85~110) | 2 to 200 | A (90~110) | < 2 | O=c1[nH]c(=O)n(-c2cc(Cl)c(Oc3cc(S(=O)(=O)NC4COC4)c(O)cn3)c(Cl)c2)nc1C(F)F [Compound 158, 2-(2,6-dichloro-4-(6-(difluoromethyl)-3,5-dioxo-4,5-dihydro-1,2,4-triazin-2(3H)-yl)phenoxy)-5-hydroxy-N-(oxetan-3-yl)pyridine-4-sulfonamide]
20 | B (40~85) | 200 to 1000 | B (75~90) | 20 to 100 | O=c1[nH]c(=O)n(-c2cc(Cl)c(Oc3cc(S(=O)(=O)NC45CCC(O)(C4)C5)c(O)cn3)c(Cl)c2)nc1C(F)F [Compound 159, 2-(2,6-dichloro-4-(6-(difluoromethyl)-3,5-dioxo-4,5-dihydro-1,2,4-triazin-2(3H)-yl)phenoxy)-5-hydroxy-N-(4-hydroxybicyclo[2.1.1]hexan-1-yl)pyridine-4-sulfonamide]
